Here are results for four compounds from ChEMBL document CHEMBL1201862, “PubChem BioAssay data set” (2004).

In experiment [1] the target is Tyrosyl-DNA phosphodiesterase 2 (Homo sapiens, UniProt O95551). Put plainly: potency against TDP2 phosphodiesterase activity – biochemical, epi absorbance, IC50, dose response (AID 743297).
The target in experiment [2] is LIM domain kinase 1 (Homo sapiens, UniProt P53667). In words: Navigating the Kinome. Panel member name: LIMK1. The class given is functional.
Experiment [3] has as its target Beta-galactosidase (Escherichia coli, UniProt Q8VNN2). Put plainly: detection-enzyme interference by beta-gal modulators – biochemical, E. coli enzyme, set 3, artefact control for CCR6 antagonist project, dose response (AID 504712). It counts as functional.
Experiment [4] has as its target T1, Hexokinase HKDC1 (Homo sapiens, UniProt Q2TB90).
T1 sequence (Q2TB90 whole entry): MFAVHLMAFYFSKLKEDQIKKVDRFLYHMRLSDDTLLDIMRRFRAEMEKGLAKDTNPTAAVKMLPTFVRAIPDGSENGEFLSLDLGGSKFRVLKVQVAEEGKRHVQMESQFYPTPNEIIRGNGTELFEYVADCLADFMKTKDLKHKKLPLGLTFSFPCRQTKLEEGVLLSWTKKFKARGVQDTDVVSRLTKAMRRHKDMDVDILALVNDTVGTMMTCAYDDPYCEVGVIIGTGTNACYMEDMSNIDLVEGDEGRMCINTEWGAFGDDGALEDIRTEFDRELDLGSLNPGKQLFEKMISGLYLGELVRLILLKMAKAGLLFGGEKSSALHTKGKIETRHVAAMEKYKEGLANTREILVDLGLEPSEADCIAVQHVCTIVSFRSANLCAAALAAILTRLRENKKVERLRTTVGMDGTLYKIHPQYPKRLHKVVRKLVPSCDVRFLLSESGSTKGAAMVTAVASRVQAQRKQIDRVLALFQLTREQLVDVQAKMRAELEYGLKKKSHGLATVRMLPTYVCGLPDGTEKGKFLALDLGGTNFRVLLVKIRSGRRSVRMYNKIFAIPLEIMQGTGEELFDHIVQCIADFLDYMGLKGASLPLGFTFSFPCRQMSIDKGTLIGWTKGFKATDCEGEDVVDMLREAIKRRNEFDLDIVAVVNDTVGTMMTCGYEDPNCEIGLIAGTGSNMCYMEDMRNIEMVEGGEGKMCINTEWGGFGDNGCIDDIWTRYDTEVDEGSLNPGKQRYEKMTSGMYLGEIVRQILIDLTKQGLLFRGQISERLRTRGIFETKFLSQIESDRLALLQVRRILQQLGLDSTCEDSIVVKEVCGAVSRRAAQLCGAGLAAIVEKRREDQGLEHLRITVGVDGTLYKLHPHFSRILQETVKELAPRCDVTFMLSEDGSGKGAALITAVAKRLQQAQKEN
Put plainly: inhibition of HKDC1 glucose phosphorylation – biochemical, W721R variant, dose response (AID 504729). The class given is functional.

Experiment [5] deals with Dual specificity tyrosine-phosphorylation-regulated kinase 1A (Rattus norvegicus, UniProt Q63470). It counts as biochemical, Homo sapiens.
Experiment [6] in a line: off-target signal loss in HeLa-CEM21 co-culture – HeLa F-luc CTL cells, cherry-picked, counter-screen for HIV-1 Env fusion inhibitor project, dose response (AID 652040).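 Note: potency for signal decrease marking cytotoxic or nonspecific inhibition.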 It counts as functional, cell-based. Background: A counterscreen serves to expose hits that act by an unwanted route or on another target.
Experiment [7] relates to BJ. Put plainly: BJ-TERT fibroblast viability loss – cell-based, RAS-independent, luminescence, dose response (AID 1933). The settings on record: Homo sapiens. It counts as functional.
The nature of experiment [8]: M. tuberculosis H37Rv growth inhibitors, H37Rv strain (AID 1626). It counts as functional.
Experiment [9] concerns BJ. Put plainly: BJ-TERT-LT-ST fibroblast viability loss – cell-based, RAS-independent, luminescence, dose response (AID 1935).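 Note: BJ fibroblasts immortalized with TERT plus LT and ST oncogenes.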 It counts as functional. Particulars: Homo sapiens.

The source made the active and inactive calls.

LIM domain kinase 1, sequence (P53667 whole entry, the tested form may be a part): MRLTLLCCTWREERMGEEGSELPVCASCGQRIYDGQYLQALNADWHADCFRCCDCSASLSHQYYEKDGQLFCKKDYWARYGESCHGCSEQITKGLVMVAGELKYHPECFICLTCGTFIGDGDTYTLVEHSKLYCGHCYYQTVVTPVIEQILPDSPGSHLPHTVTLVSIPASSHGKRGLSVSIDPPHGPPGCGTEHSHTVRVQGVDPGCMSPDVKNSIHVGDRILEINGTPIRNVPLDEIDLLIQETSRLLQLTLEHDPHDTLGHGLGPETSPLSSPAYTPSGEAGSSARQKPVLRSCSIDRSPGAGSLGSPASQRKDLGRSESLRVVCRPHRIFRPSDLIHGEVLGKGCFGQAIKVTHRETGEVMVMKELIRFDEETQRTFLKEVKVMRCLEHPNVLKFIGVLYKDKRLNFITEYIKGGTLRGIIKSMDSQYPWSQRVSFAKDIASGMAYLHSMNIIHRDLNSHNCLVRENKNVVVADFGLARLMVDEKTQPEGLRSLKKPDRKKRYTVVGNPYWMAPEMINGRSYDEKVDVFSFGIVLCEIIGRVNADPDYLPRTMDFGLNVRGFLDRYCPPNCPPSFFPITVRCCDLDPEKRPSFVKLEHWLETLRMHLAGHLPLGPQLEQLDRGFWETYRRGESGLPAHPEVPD
Beta-galactosidase, sequence (Q8VNN2 whole entry): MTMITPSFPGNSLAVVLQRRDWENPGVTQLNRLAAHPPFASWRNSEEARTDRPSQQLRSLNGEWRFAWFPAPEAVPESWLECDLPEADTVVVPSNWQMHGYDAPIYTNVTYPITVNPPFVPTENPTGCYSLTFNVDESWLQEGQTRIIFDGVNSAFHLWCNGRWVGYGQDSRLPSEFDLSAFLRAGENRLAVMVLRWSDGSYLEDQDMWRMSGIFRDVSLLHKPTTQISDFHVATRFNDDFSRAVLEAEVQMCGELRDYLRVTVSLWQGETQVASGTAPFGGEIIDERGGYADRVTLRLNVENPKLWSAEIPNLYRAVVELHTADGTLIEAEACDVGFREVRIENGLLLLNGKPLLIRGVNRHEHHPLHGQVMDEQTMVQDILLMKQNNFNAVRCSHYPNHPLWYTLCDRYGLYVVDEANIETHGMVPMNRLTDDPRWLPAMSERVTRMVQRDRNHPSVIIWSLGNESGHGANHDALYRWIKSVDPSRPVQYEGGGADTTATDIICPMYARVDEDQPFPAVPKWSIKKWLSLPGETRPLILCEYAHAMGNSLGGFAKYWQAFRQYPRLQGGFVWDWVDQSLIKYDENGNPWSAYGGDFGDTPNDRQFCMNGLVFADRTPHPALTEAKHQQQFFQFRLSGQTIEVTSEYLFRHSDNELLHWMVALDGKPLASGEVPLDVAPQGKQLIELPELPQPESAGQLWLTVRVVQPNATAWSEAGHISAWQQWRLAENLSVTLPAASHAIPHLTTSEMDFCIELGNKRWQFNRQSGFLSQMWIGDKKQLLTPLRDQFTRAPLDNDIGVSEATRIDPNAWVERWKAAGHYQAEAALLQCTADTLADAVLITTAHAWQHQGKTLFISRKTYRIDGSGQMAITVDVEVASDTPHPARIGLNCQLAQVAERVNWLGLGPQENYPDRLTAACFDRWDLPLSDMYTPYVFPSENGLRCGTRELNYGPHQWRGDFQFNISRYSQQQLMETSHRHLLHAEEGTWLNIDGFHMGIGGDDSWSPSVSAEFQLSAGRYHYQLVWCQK
Tyrosyl-DNA phosphodiesterase 2, sequence (O95551 whole entry, the tested form may be a part): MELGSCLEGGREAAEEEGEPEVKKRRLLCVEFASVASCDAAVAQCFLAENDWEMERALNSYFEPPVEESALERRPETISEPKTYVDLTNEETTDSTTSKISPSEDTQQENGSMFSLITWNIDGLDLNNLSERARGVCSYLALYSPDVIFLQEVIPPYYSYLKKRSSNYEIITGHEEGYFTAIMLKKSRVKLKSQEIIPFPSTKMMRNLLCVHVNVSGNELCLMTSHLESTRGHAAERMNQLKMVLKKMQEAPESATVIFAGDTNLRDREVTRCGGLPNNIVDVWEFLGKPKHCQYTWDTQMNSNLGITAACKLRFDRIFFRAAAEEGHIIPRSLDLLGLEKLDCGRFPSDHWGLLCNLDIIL

Regarding `O=C(Cc1ccccc1)NC1(O)C(=O)c2ccccc2C1=O`, the IC50 (usually the concentration that inhibits the measured activity by half) in [1] is 13.2 µM (inactive).
Consider `O=C(Nc1cccc(C(F)(F)F)n1)Nc1ccnc2cc(OC(F)F)ccc12`, for which the Ki (as a rule, the equilibrium dissociation constant of an inhibitor or competing ligand from its target) in [2] is > 3.16 µM (inactive).
Take `Cc1cc(C)c(S(=O)(=O)/N=C2\C=C(Nc3ccc(C(=O)O)cc3)C(=O)c3ccccc32)c(C)c1`: the figures for the IC50 in experiment [3] and in experiment [4] were 36.1 µM (active) and 15.2 µM (active), respectively. Also, the concentration at half-maximal activity (AC50) (as a rule, the concentration giving half of the maximal activity seen) in experiment [5] was 1.8 µM (active); in [6], 17.2 µM (active).
`COC(=O)c1nc(-c2ccc3c(n2)C(=O)C(=N)C(OC)=C3O)c(N)c(-c2ccc(OC)c(OC)c2O)c1C`: the EC50 (as a rule, the concentration at which the effect is half-maximal) in experiment [7] is 5.91 µM (active); in experiment [9], 10.3 µM (active). The IC50 in experiment [8] was > 100 µM (active).
